Measured values published in ChEMBL document CHEMBL1126165, “Preparation and evaluation of some hydrophilic phenylacetyl-piperazines as peripherally selective -opioid receptor agonists” (Bioorg Med Chem Lett, 1992).

Tests used:
Mus musculus [1] = assay: Tested in vivo for antinociceptive activity using the mouse acetylcholine induced abdominal constriction test by intracerebroventricular (i.c.v.) administration; type: functional; settings: Abdomen, central
Mus musculus [2] = assay: Tested in vivo for antinociceptive activity using the mouse acetylcholine induced abdominal constriction test by subcutaneous (s.c.) administration; type: functional; settings: Abdomen, sc
[3] = Lipophilicity was expressed as Log D; settings: octanol/water
[4] = Ratio of antinociceptive activity measured using mouse acetylcholine induced abdominal constriction test by s.c. administration to that done by i.c.v.; type: functional, Abdomen

CC(=O)N1CCN(C(=O)Cc2cccc([N+](=O)[O-])c2)C(CN2CC[C@H](O)C2)C1 (some centres not stated)
ED50 (Mus musculus [1]): 0.006 mg/kg
ED50 (Mus musculus [2]): 0.74 mg/kg

CC(=O)N1CCN(C(=O)Cc2cc(F)cc(F)c2)C(CN2CC[C@H](O)C2)C1 (some centres not stated)
logD [3]: 0.3
ED50 (Mus musculus [1]): 0.006 mg/kg
Ratio [4]: 417
ED50 (Mus musculus [2]): 2.5 mg/kg

CN(C(=O)Cc1ccc(Cl)c(Cl)c1)C(CN1CCCC1)c1cccc(OCC(=O)O)c1 (configuration not stated) [ICI-204448]
logD [3]: 0.3
ED50 (Mus musculus [1]): 0.13 mg/kg
ED50 (Mus musculus [2]): 4.4 mg/kg

CC(=O)N1CCN(C(=O)Cc2ccc(C(F)(F)F)cc2)C(CN2CC[C@H](O)C2)C1 (some centres not stated)
logD [3]: 1
ED50 (Mus musculus [1]): 0.008 mg/kg
Ratio [4]: 95
ED50 (Mus musculus [2]): 0.76 mg/kg

COc1cccc(CC(=O)N2CCN(C(C)=O)CC2CN2CC[C@H](O)C2)c1 (some centres not stated)
logD [3]: 0

COC(=O)N1CCN(C(=O)Cc2ccc(Cl)c(Cl)c2)[C@H](CN2CCCC2)C1
logD [3]: 3.1
ED50 (Mus musculus [1]): 0.0002 mg/kg
Ratio [4]: 1.5
ED50 (Mus musculus [2]): 0.0003 mg/kg

CC(=O)N1CCN(C(=O)Cc2ccc(S(C)(=O)=O)cc2)C(CN2CC[C@H](O)C2)C1 (some centres not stated)
logD [3]: < -0.5
ED50 (Mus musculus [1]): 0.0008 mg/kg
Ratio [4]: 2762
ED50 (Mus musculus [2]): 2.21 mg/kg

CC(=O)N1CCN(C(=O)Cc2ccc(Cl)c(Cl)c2)C(CN2CC[C@H](O)C2)C1 (some centres not stated)
logD [3]: 1.2
ED50 (Mus musculus [1]): 0.007 mg/kg
Ratio [4]: 100
ED50 (Mus musculus [2]): 0.7 mg/kg

COc1ccc(CC(=O)N2CCN(C(C)=O)CC2CN2CC[C@H](O)C2)cc1 (some centres not stated)
logD [3]: -0.1

CC(=O)N1CCN(C(=O)Cc2ccc([N+](=O)[O-])cc2)C(CN2CC[C@H](O)C2)C1 (some centres not stated)
logD [3]: 0
ED50 (Mus musculus [1]): 0.024 mg/kg
Ratio [4]: 200
ED50 (Mus musculus [2]): 4.8 mg/kg

CC(=O)N1CCN(C(=O)Cc2ccccc2)C(CN2CC[C@H](O)C2)C1 (some centres not stated)
logD [3]: -0.1

CSc1ccc(CC(=O)N2CCN(C(C)=O)CC2CN2CC[C@H](O)C2)cc1 (some centres not stated)
logD [3]: 0.6
ED50 (Mus musculus [1]): 0.075 mg/kg
Ratio [4]: 20
ED50 (Mus musculus [2]): 1.52 mg/kg

CC(=O)N1CCN(C(=O)Cc2ccc([S+](C)[O-])cc2)C(CN2CC[C@H](O)C2)C1 (some centres not stated)
logD [3]: < -0.5
